The values that follow come from patent US7326772B2, “Peptide for assaying hERG channel binding” (Penta Biotech, Inc., priority 2005, dated 2008).

One data set has as its target T1, hERG channel (Homo sapiens, UniProt Q12809).
T1 construct: host or cells: HEK-293 (hERG/HEK-293 cell line, clone 16), membrane preparation
The data set can be described thus: Ki (average). An excerpt:
Table printed on a drawing sheet, FIG. 4
Title: Ki of BeKm-1 Analogs in Two Independent FlashBlue Competition Assays.
Head of the field: Ki (average)
First copying reader's note: The table is panel A of FIG. 4; panel B is a plot and is left out.

Data set [1] concerns the target T2, hERG K+ channel membranes (hERG/HEK-293 cell line, clone 16) (Homo sapiens, UniProt Q12809).
T2 construct: host or cells: HEK-293 (hERG/HEK-293 cell line, clone 16), membrane preparation
The experiment in a line: homogeneous [125I]-BeKm-1 FlashBlue competition assay. Type of data set: binding. The conditions noted are these: [125I]-BeKm-1 at 0.17 nM; acetate and TFA salts; one hour at room temperature. On the procedure:
Acetate and TFA salts of (SeC)^7-BeKm-1 were tested in homogeneous [^125I]-BeKm-1 competition assays using FlashBlue GPCR beads and hERG K^+ channel membranes derived from Perkin Elmer's hERG/HEK-293 cell line (clone 16). […] Assays were run in buffer composed of 20 mM Hepes/Tris pH 7.2, 100 μM KCl, 0.5% BSA. 1.25 μg hERG K^+ channel membranes and 62.5 μg FlashBlue GPCR beads were added to each well of a 384-well white Optiplate. The total assay volume for each well was 40 μl. Plates were spun briefly after a one hour incubation at room temperature prior to signal detection with a TopCount apparatus.

Where a name gives a salt, the structure may show the parent alone. Bridge positions count the residues as written; N and C are the ends. Peptide text beside a SMILES is read from it.

T2 sequence (Q12809 whole entry): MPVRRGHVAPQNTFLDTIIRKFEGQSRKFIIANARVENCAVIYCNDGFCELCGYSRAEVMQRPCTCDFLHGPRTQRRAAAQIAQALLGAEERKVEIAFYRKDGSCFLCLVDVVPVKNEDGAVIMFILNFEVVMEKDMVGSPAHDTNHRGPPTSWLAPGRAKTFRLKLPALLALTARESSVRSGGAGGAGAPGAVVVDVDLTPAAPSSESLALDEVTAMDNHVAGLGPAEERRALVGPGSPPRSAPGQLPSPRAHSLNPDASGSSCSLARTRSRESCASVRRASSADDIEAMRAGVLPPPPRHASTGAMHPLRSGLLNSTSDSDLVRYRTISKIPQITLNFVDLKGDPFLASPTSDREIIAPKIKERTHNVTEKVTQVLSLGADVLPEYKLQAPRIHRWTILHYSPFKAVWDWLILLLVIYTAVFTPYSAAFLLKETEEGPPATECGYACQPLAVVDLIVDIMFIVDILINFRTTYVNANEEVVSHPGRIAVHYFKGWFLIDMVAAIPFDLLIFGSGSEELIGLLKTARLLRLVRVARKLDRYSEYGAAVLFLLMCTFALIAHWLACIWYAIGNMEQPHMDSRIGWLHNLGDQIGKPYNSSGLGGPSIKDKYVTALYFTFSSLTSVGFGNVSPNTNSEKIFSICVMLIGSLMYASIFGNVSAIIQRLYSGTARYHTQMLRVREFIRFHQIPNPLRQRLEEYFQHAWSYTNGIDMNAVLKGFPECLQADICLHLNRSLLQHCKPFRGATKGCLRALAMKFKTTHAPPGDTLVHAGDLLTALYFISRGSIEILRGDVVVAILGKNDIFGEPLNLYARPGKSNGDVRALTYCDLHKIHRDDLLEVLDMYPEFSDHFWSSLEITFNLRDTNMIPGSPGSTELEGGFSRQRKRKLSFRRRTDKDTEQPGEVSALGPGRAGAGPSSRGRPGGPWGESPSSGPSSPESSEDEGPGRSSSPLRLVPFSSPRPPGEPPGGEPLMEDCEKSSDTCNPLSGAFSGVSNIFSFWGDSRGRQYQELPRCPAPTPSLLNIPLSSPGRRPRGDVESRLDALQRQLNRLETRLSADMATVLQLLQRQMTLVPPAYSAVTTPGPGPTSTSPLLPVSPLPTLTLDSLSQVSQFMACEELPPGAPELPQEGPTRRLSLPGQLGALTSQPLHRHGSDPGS
T1 sequence (Q12809 whole entry, looked up): as the sequence (Q12809 whole entry) above

In the case of `CC[C@H](C)[C@H](NC(=O)[C@H](CC(=O)O)NC(=O)[C@@H](NC(=O)[C@@H]1CCCN1C(=O)[C@@H](N)CCCNC(=N)N)[C@@H](C)O)C(=O)N[C@@H](CCCCN)C(=O)N[C@H]1CSSC[C@@H]2NC(=O)[C@H](CCCNC(=N)N)NC(=O)CNC(=O)[C@H](CC(N)=O)NC(=O)[C@H]([C@@H](C)O)NC(=O)[C@H](CCCCN)NC(=O)CNC(=O)[C@H](Cc3ccccc3)NC(=O)[C@H](CCCNC(=N)N)NC(=O)[C@H](CO)NC(=O)[C@H](CCCCN)NC(=O)[C@@H]3CSSC[C@@H](C(=O)N[C@@H](Cc4ccccc4)C(=O)O)NC(=O)[C@H](CC(=O)O)NC(=O)[C@H](CSSC[C@H](NC(=O)[C@H](CCC(N)=O)NC(=O)[C@H](Cc4ccc(O)cc4)NC(=O)[C@H](CO)NC(=O)[C@H](CCC(=O)O)NC(=O)[C@H](CO)NC1=O)C(=O)N[C@@H](Cc1ccccc1)C(=O)N1CCC[C@H]1C(=O)N[C@@H](C(C)C)C(=O)N3)NC(=O)[C@H](Cc1ccccc1)NC(=O)CNC(=O)[C@H](CC(N)=O)NC(=O)[C@H](C(C)C)NC2=O` [BeKm-1 TFA Salt] (H-RPTDIKCSESYQCFPVCKSRFGKTNGRCVNGFCDCF-OH; disulfide 7-28, 13-33, 17-35 (inferred)), affinity on hERG channel was put at a Ki of 0.35 nM.
Turning to “RPTDIKCSESYQCFPVCKSRFGKTNGRCVNGFCDCF [(SeC)^7-BeKm-1]”, the “affinity for the hERG channel (Ki, FIG. 4)” value in data set [1] is recorded as “comparable to that of native BeKm-1”.
